{"source": "patent US20150202212A1", "about": "“METHODS FOR IDENTIFYING AGENTS FOR TREATING SMOOTH MUSCLE DISORDERS AND COMPOSITIONS THEREOF” (University of Massachusetts Medical School, priority 2012, published 2015)", "key": {"[1]": {"system": "human airway smooth muscle", "test": "Measurement of cell shortening in human ASM cells", "type": "cell-based", "conditions": "chloroquine after Mch", "experimental": "Human lung tissue was obtained (with informed consent) from patients undergoing surgery (lobectomy) for lung cancer at the Department of Surgery and the Department of Pathology at the Univ. of Massachusetts Memorial Med Ctr (Worcester, Mass.). The tumors were identified as nonsmall cell carcinoma (adenocarcinoma, squamous cell carcinoma). Intrapulmonary airways were dissected out and cleaned free of the connective tissues. These airways were either cut into the rings ([…]) for force measurements the same as for mouse airway tissues, or digested with the same enzymes, dissociation medium and isolation procedure as for single mouse ASM cells.\nMyocytes were placed into a recording chamber superfused with the bath solution for patch clamp experiments at room temperature. Cells loaded with Fluo-3 were imaged using a custom-built wide-field digital imaging system and their lengths were determined using custom software to manually trace down the center of the cell."}, "mouse urethra": {"system": "mouse urethra", "test": "Mouse urethral contraction induced by contractile agonists", "conditions": "pretreatment; Chloro 1 mM; CDCA 100 μM", "description": "[…] were pretreated with bitter tastants, and then stimulated with contractile agonists. Contractile agonists alone were used as the control."}, "[2]": {"system": "isolated smooth muscle cells from mouse internal anal sphincter", "test": "[Ca2+]i in isolated smooth muscle cells from mouse internal anal sphincter", "type": "cell-based", "conditions": "CDCA 100 μM; chloroquine 1 mM; denatonium 1 mM", "description": "Fluorescence images using fluo-3 as a calcium indicator were obtained using a custom-built wide-field digital imaging system. The camera was interfaced to a custom made inverted microscope, and the cells were imaged using either a 20× Nikon 1.3 NA for global [Ca^2+] measurement or a 60× Nikon 1.4 NA oil for Ca^2+ spark measurement. The 488 nm line of an Argon Ion laser provided fluorescence excitation, with a shutter to control exposure duration, and emission of the Ca^2+ indicator was monitored at wavelengths >500 nm. The images were acquired at the speed of either 1 Hz for global [Ca^2+] measurement or 50 Hz for Ca^2+ spark measurement. Subsequent image processing and analysis was performed off line using a custom-designed software package, running on a Linux/PC workstation. [Ca^2+]i was represented as ΔF/F0*100 with F calculated by integrating fluo-3 over entire cells for global [Ca^2+], or just the value at the brightest pixel (i.e., epicenter pixel) for Ca^2+ sparks."}, "mouse airway strips": {"system": "mouse airway strips", "conditions": "all at 1 mM; [Ca2+]i clamped; α-toxin permeabilized"}, "L-type VDCCs": {"system": "L-type VDCCs", "conditions": "chloroquine 1 mM; for inhibition of L-type Ca2+ channel currents: Ba2+ as charge carrier"}, "Mouse ASM cells": {"system": "Mouse ASM cells", "test": "Measurement of Ca2+ sparks / local Ca2+ events in mouse ASM cells"}}, "note": "Read-outs that look alike come from different tables or passages of the source.", "data": [{"smiles": "CCN(CC)CCCC(C)Nc1ccnc2cc(Cl)ccc12", "note": "(centres unmarked) [chloroquine]", "values": [{"measurement": "cell length, % of the control length", "setting": "[1]", "value": "94±5", "unit": "%"}, {"measurement": "effect on 60 mM KCl-induced contraction", "setting": "mouse urethra", "value": "blocked"}, {"measurement": "effect on alpha1-agonist phenylephrine-induced contraction", "setting": "mouse urethra", "value": "inhibited"}, {"measurement": "effect on the increase in [Ca2+]i induced by 60 mM KCl", "setting": "[2]", "value": "fully reversed"}, {"measurement": "relaxation of ASM at fixed [Ca2+]i", "setting": "mouse airway strips", "value": "failed to relax"}, {"measurement": "time to full inhibition of L-type Ca2+ channel currents", "setting": "L-type VDCCs", "value": "≤ 2", "unit": "min"}, {"measurement": "inhibition of L-type Ca2+ channel currents", "setting": "L-type VDCCs", "value": "fully inhibited"}, {"measurement": "inhibition of L-type Ca2+ channel currents", "setting": "L-type VDCCs; listed as Chloro", "value": "blocked"}, {"measurement": "Ca2+ spark frequency", "setting": "Mouse ASM cells; chloroquine 10 μM for 2 mins, 13 cells without global rise, control 2.13±0.24", "value": "1.62±0.21", "unit": "Hz"}, {"measurement": "Ca2+ spark amplitude (ΔF/F0 at the brightest location)", "setting": "Mouse ASM cells; chloroquine 10 μM for 2 mins, n=13, control 20.6±1.69", "value": "18.1±1.3"}, {"measurement": "local Ca2+ events (Ca2+ puffs or sparks)", "setting": "Mouse ASM cells; chloroquine 10 μM, cells pretreated with 100 μM ryanodine, 14 cells", "value": "no detectable local Ca^2+ events"}]}]}
